For 26 molecules, IC50 results are on record in patent publication US20100029657A1, “Bridged, Bicyclic Heterocyclic or Spiro Bicyclic Heterocyclic Derivatives of Pyrazolo[1, 5-A]Pyrimidines, Methods for Preparation and Uses Thereof” (Wyeth, priority 2008, published 2010).

For this experiment, the target named is T1, Flag/GST-tagged recombinant human B-Raf (Homo sapiens, UniProt P15056).
T1 construct: Flag; GST; made in house; host or cells: Sf9 insect cells (B-Raf); E. coli (MEK1-GST)
The experiment can be described thus: B-Raf kinase assay (phosphorylation of GST-MEK1, phospho-MEK1 antibody/Europium detection). The format is biochemical. The settings on record: B-Raf IC50 Data for compounds of Formula A; read-out: Mean IC50. As for the experimental part: B-Raf1 Kinase Assay Procedure: B-Raf-1 is used to phosphorylate GST-MEK1.
• 1. Assay Dilution Buffer (ADB): 20 mM MOPS, pH 7.2, 25 mM β-glycerol phosphate, 5 mM EGTA, 1 mM sodium orthovanadate, 1 mM dithiothreitol, 0.01% Triton X-100. • 2. Magnesium/ATP Cocktail: ADB solution (minus Triton X-100) plus 200 μM cold ATP and 40 mM magnesium chloride. • 4. Active Kinase: Active B-Raf: Used at 0.2 nM per assay point. • 5. […] TBST—Tris (50 mM, pH 7.5), NaCl (150 mM), Tween-20 (0.05%) • 7. Anti-GST Ab (GE) • 8. Anti pMEK Ab (Upstate) • 9. Anti-rabbit Ab/Europium conjugate (Wallac).
B-Raf Assay Procedure: • 1. Added 25 μL of ADB containing B-Raf and Mek per assay (i.e. per well of a 96 well plate) • 2. Added 25 μL of 0.2 mM ATP and 40 mM magnesium chloride in Magnesuium/ATP Cocktail. • 3. Incubated for 45 minutes at RT with occasional shaking. • 4. Transferred this mixture to an anti-GST Ab coated 96 well plate (Nunc Immunosorb plates coated o/n with a-GST. Plate freshly washed 3×with TBS-T before use. • 5. Incubated o/n at […] in cold room. • 6. Washed 3× with TBST, ed Anti-Phospho MEK1 (1:1000, dilution depended upon lot) • 7. Incubated for 60 minutes at RT in a shaking incubator • 8. Washed 3× with TBST, add Anti-rabbit Ab/Europium conjugate (Wallac) (1:500, dilution depended upon lot) • 9. Incubated for 60 minutes at RT on a platform shaker. • 10. Washed plate 3× with TBS-T • 11. Added 100 μL of Wallac Delfia Enhancement Solution and agitated for 10 minutes. • 12. Read plates in Wallac Victor model Plate Reader. • 13.
The % inhibition was determined for each compound concentration.

SMILES strings stand for the structures.

T1 sequence (P15056 whole entry): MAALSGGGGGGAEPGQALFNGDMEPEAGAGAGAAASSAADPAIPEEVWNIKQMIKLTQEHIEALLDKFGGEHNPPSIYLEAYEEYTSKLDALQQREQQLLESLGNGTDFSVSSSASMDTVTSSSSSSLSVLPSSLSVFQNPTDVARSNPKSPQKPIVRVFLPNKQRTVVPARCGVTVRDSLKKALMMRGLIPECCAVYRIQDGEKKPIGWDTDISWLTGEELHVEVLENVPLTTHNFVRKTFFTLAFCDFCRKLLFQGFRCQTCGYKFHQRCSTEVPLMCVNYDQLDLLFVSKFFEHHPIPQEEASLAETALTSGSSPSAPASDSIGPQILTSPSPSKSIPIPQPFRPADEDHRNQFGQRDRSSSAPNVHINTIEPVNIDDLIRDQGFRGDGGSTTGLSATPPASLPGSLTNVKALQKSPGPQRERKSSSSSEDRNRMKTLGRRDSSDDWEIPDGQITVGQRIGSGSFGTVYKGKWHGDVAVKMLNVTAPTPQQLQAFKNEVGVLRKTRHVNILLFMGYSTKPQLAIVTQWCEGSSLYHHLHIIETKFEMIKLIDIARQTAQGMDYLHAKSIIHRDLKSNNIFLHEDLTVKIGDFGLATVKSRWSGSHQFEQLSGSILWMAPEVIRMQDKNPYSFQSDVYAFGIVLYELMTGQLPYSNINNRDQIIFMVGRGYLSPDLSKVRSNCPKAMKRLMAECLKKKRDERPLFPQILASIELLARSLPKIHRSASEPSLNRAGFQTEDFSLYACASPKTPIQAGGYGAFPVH

By IC50 is commonly meant the concentration needed to halve the response being measured. As for `c1cc(-c2c(-c3ccncc3)nn3c2nccc3[C@H]2CC[C@@H](N3C4CCC3COC4)CC2)c2cn[nH]c2c1` (relative stereo) [Example 150, 3-(1H-indazol-4-yl)-7-[cis-4-(3-oxa-8-azabicyclo[3.2.1]oct-8-yl)cyclohexyl]-2-pyridin-4-ylpyrazolo[1,5-a]pyrimidine], the 50% inhibitory concentration (IC50) stood at 39.9 nM. Turning to `c1cc(-c2c(-c3ccncc3)nn3c2nccc3[C@H]2CC[C@H](N3C4CCC3COC4)CC2)c2cn[nH]c2c1` (relative stereo) [Example 151, 3-(1H-indazol-4-yl)-7-[trans-4-(3-oxa-8-azabicyclo[3.2.1]oct-8-yl)cyclohexyl]-2-pyridin-4-ylpyrazolo[1,5-a]pyrimidine], the IC50 amounted to 6.4 nM.

Consider `c1cc(-c2c(-c3ccncc3)nn3c2nccc3[C@H]2CC[C@@H](N3CC4CCC(C3)O4)CC2)c2cn[nH]c2c1` (relative stereo) [Example 152, 3-(1H-indazol-4-yl)-7-[cis-4-(8-oxa-3-azabicyclo[3.2.1]oct-3-yl)cyclohexyl]-2-pyridin-4-ylpyrazolo[1,5-a]pyrimidine], for which the IC50 was found to be 6.4 nM.

On to `c1cc(-c2c(-c3ccncc3)nn3c2nccc3[C@H]2CC[C@H](N3CC4CCC(C3)O4)CC2)c2cn[nH]c2c1` (relative stereo) [Example 153, 3-(1H-indazol-4-yl)-7-[trans-4-(8-oxa-3-azabicyclo[3.2.1]oct-3-yl)cyclohexyl]-2-pyridin-4-ylpyrazolo[1,5-a]pyrimidine], for which the IC50 is 3.7 nM. For `Fc1ccc(-c2c(-c3ccncc3)nn3c2nccc3[C@H]2CC[C@@H](N3CC4CCC(C3)O4)CC2)c2cn[nH]c12` (relative stereo) [Example 179, 3-(7-fluoro-1H-indazol-4-yl)-7-[cis-4-(8-oxa-3-azabicyclo[3.2.1]oct-3-yl)cyclohexyl]-2-pyridin-4-ylpyrazolo[1,5-a]pyrimidine], the IC50 worked out at 8.6 nM. Turning to `Fc1ccc(-c2c(-c3ccncc3)nn3c2nccc3[C@H]2CC[C@H](N3CC4CCC(C3)O4)CC2)c2cn[nH]c12` (relative stereo) [Example 180, 3-(7-fluoro-1H-indazol-4-yl)-7-[trans-4-(8-oxa-3-azabicyclo[3.2.1]oct-3-yl)cyclohexyl]-2-pyridin-4-ylpyrazolo[1,5-a]pyrimidine], the IC50 worked out at 1.8 nM. The result for `Fc1ccc(-c2c(-c3ccncc3)nn3c2nccc3[C@H]2CC[C@@H](N3C4CCC3COC4)CC2)c2cn[nH]c12` (relative stereo) [Example 181, 3-(7-fluoro-1H-indazol-4-yl)-7-[cis-4-(3-oxa-8-azabicyclo[3.2.1]oct-8-yl)cyclohexyl]-2-pyridin-4-ylpyrazolo[1,5-a]pyrimidine] reads 2.1 nM; that for `Fc1ccc(-c2c(-c3ccncc3)nn3c2nccc3[C@H]2CC[C@H](N3C4CCC3COC4)CC2)c2cn[nH]c12` (relative stereo) [Example 182, 3-(7-fluoro-1H-indazol-4-yl)-7-[trans-4-(3-oxa-8-azabicyclo[3.2.1]oct-8-yl)cyclohexyl]-2-pyridin-4-ylpyrazolo[1,5-a]pyrimidine], 1.3 nM.

For `Oc1cccc(-c2c(-c3ccncc3)nn3c(-c4ccc(NCC56CCN(CC5)CC6)nc4)ccnc23)c1` [Example 1, 3-(7-{6-[(1-Azabicyclo[2.2.2]oct-4-ylmethyl)amino]pyridin-3-yl}-2-pyridin-4-ylpyrazolo[1,5-a]pyrimidin-3-yl)phenol], the IC50 amounted to 2 nM. The result for `Oc1cccc(-c2c(-c3ccncc3)nn3c(-c4ccc(N[C@@H]5CN6CCC5CC6)nc4)ccnc23)c1` [Example 2, 3-(7-{6-[(3S)-1-Azabicyclo[2.2.2]oct-3-ylamino]pyridin-3-yl}-2-pyridin-4-ylpyrazolo[1,5-a]pyrimidin-3-yl)phenol] reads 2 nM. In the case of `Oc1cccc(-c2c(-c3ccncc3)nn3c(-c4ccc(N[C@H]5CN6CCC5CC6)nc4)ccnc23)c1` [Example 3, 3-(7-{6-[(3R)-1-Azabicyclo[2.2.2]oct-3-ylamino]pyridin-3-yl}-2-pyridin-4-ylpyrazolo[1,5-a]pyrimidin-3-yl)phenol], the IC50 is 1 nM. The result for `COc1cc(-c2c(-c3ccncc3)nn3c(-c4ccc(NC5CN6CCC5CC6)nc4)ccnc23)ccc1Cl` [Example 5, 5-(7-{6-[(3R)-1-Azabicyclo[2.2.2]oct-3-ylamino]pyridin-3-yl}-3-(4-chloro-3-methoxyphenyl)-2-pyridin-4-ylpyrazolo[1,5-a]pyrimidine] reads 6 nM. With `Oc1cccc(-c2c(-c3ccncc3)nn3c(NCC45CCN(CC4)CC5)ccnc23)c1` [Example 6], the IC50 came out at 57 nM. Consider `CCOC(=O)N1C2CCC1CC(c1ccnc3c(-c4cccc(OC)c4)c(-c4ccncc4)nn13)C2` (centres unmarked) [Example 7, Ethyl 3-(3-(3-methoxyphenyl)-2-(pyridin-4-yl)pyrazolo[1,5-a]pyrimidin-7-yl)-8-azabicyclo[3.2.1]octane-8-carboxylate], for which the IC50 turned out to be 87 nM. `CCOC(=O)N1C2CCC1CC(c1ccnc3c(-c4cccc(O)c4)c(-c4ccncc4)nn13)C2` (centres unmarked) [Example 8, Ethyl 3-(3-(3-hydroxyphenyl)-2-(pyridin-4-yl)pyrazolo[1,5-a]pyrimidin-7-yl)-8-azabicyclo[3.2.1]octane-8-carboxylate]: the half-inhibitory concentration (IC50) came to 1 nM. Regarding `Oc1cccc(-c2c(-c3ccncc3)nn3c(C4CC5CCC(C4)N5)ccnc23)c1` (centres unmarked) [Example 9, 3-(7-(8-Azabicyclo[3.2.1]octan-3-yl)-2-(pyridin-4-yl)pyrazolo[1,5-a]pyrimidin-3-yl)phenol], the IC50 was determined as 4 nM. `CCOC(=O)N1C2CCC1CC(c1ccnc3c(-c4ccc(Cl)c(OC)c4)c(-c4ccncc4)nn13)C2` (centres unmarked) [Example 10, Ethyl 3-(3-(4-chloro-3-methoxyphenyl)-2-(pyridin-4-yl)pyrazolo[1,5-a]pyrimidin-7-yl)-8-azabicyclo[3.2.1]octane-8-carboxylate]: the IC50 was 54 nM. `CCOC(=O)N1C2CCC1CC(c1ccnc3c(-c4ccc(Cl)c(O)c4)c(-c4ccncc4)nn13)C2` (centres unmarked) [Example 11, Ethyl 3-(3-(4-chloro-3-hydroxyphenyl)-2-(pyridin-4-yl)pyrazolo[1,5-a]pyrimidin-7-yl)-8-azabicyclo[3.2.1]octane-8-carboxylate]: the IC50 worked out at 2 nM.

Turning to `Oc1cc(-c2c(-c3ccncc3)nn3c(C4CC5CCC(C4)N5)ccnc23)ccc1Cl` (centres unmarked) [Example 12, 5-(7-(8-Azabicyclo[3.2.1]octan-3-yl)-2-(pyridin-4-yl)pyrazolo[1,5-a]pyrimidin-3-yl)-2-chlorophenol], the concentration for half-maximal inhibition (IC50) was 0.4 nM. As to `CC(=O)N1C2CCC1CC(c1ccnc3c(-c4ccc(Cl)c(O)c4)c(-c4ccncc4)nn13)C2` (centres unmarked) [Example 13, 5-[7-(8-Acetyl-8-azabicyclo[3.2.1]oct-3-yl)-2-pyridin-4-ylpyrazolo[1,5-a]pyrimidin-3-yl]-2-chlorophenol], the IC50 is 0.3 nM. As for `CS(=O)(=O)N1C2CCC1CC(c1ccnc3c(-c4ccc(Cl)c(O)c4)c(-c4ccncc4)nn13)C2` (centres unmarked) [Example 14, 2-Chloro-5-{7-[8-(methylsulfonyl)-8-azabicyclo[3.2.1]oct-3-yl]-2-pyridin-4-ylpyrazolo[1,5-a]pyrimidin-3-yl}phenol], the IC50 came out at 2 nM. In the case of `CC(=O)Oc1cc(-c2c(-c3ccncc3)nn3c(C4CC5CCC(C4)N5C(C)=O)ccnc23)ccc1Cl` (centres unmarked) [Example 15, 5-[7-(8-Acetyl-8-azabicyclo[3.2.1]oct-3-yl)-2-pyridin-4-ylpyrazolo[1,5-a]pyrimidin-3-yl]-2-chlorophenyl acetate], the IC50 worked out at 10 nM. Turning to `COc1cc(-c2c(-c3ccncc3)nn3c(C4CC5CCC(C4)N5)ccnc23)ccc1Cl` (centres unmarked) [Example 16, 7-(8-Azabicyclo[3.2.1]oct-3-yl)-3-(4-chloro-3-methoxyphenyl)-2-pyridin-4-ylpyrazolo[1,5-a]pyrimidine], the IC50 turned out to be 9 nM. `CCN1C2CCC1CC(c1ccnc3c(-c4ccc(Cl)c(OC)c4)c(-c4ccncc4)nn13)C2` (centres unmarked) [Example 17, 3-(4-Chloro-3-methoxyphenyl)-7-(8-ethyl-8-azabicyclo[3.2.1]oct-3-yl)-2-pyridin-4-ylpyrazolo[1,5-a]pyrimidine]: the concentration for half-maximal inhibition (IC50) worked out at 44 nM. The result for `CCN1C2CCC1CC(c1ccnc3c(-c4ccc(Cl)c(O)c4)c(-c4ccncc4)nn13)C2` (centres unmarked) [Example 18, 2-Chloro-5-[7-(8-ethyl-8-azabicyclo[3.2.1]oct-3-yl)-2-pyridin-4-ylpyrazolo[1,5-a]pyrimidin-3-yl]phenol] reads 0.6 nM; that for `COc1cccc(-c2c(-c3ccncc3)nn3c(C4CC5CCC(C4)N5)ccnc23)c1` (centres unmarked) [Example 19, 7-(8-Azabicyclo[3.2.1]oct-3-yl)-3-(3-methoxyphenyl)-2-pyridin-4-ylpyrazolo[1,5-a]pyrimidine], 71 nM.
